We go through 2 compounds from ChEMBL document CHEMBL4340502, “Anti-biofilm and anti-adherence properties of novel cyclic dipeptides against oral pathogens” (Bioorg Med Chem, 2019).

In brackets after ≈: the same amount, converted by molar mass. Activity calls are given as the source filed them. Unless noted, the rule behind the calls is not given here.

Data set [1] deals with Fusobacterium nucleatum. Put plainly: Antibiofilm activity against Fusobacterium nucleatum ATCC 25586 assessed as inhibition of biofilm formation up to 96 ug/mL after 24 hrs by crystal violet staining based assay. It is filed as functional, organism-based.
Data set [2] has as its system Streptococcus mutans. Put plainly: Inhibition of planktonic growth of Streptococcus mutans ATCC 25175 up to 96 ug/mL after 24 hrs relative to control. It counts as organism-based.
The subject of data set [3] is Streptococcus mutans. Put plainly: Antiadherence activity in FITC-labelled Streptococcus mutans ATCC 25175 assessed as reduction in bacterial adhesion to hydroxylapatite at 3 ug/mL after 1 hr fluorescence assay. It counts as functional, organism-based.
The test system of data set [4] is Listeria monocytogenes. Put plainly: Growth inhibition of Listeria monocytogenes WSLC 1001 incubated for 24 hrs under aerobic condition by microdilution method. Particulars: in vitro. It counts as organism-based. Background: Broth dilution looks for growth in wells or tubes with falling amounts of substance.
Data set [5] deals with Candida albicans. Put plainly: Antiadherence activity in FITC-labelled Candida albicans ATCC 28366 assessed as reduction of bacterial adhesion to hydroxylapatite at 96 ug/mL after 1 hr by fluorescence assay relative to control. It counts as functional. Also on record: scale not given: the % may be the effect or the level left.
In data set [6] the test system is Candida albicans. Put plainly: Antiadherence activity against FITC-labelled Candida albicans ATCC 28366 assessed as reduction in bacterial adhesion to hydroxylapatite at 3 ug/mL after 1 hr by fluorescence assay. It is filed as functional, organism-based.
For data set [7], the system named is Porphyromonas gingivalis. Put plainly: Antibiofilm activity against Porphyromonas gingivalis ATCC 33277 assessed as inhibition of biofilm formation up to 96 ug/mL after 24 hrs by crystal violet staining based assay. It counts as functional, organism-based.
Data set [8] deals with Streptococcus mutans. Briefly: Antibiofilm activity against Streptococcus mutans ATCC 25175 assessed as inhibition of biofilm formation up to 96 ug/mL after 24 hrs by crystal violet staining-based assay. It counts as functional, organism-based.
In data set [9] the test system is Staphylococcus aureus. Briefly: Growth inhibition of Staphylococcus aureus ATCC 6538 incubated for 24 hrs under aerobic condition by microdilution method. It counts as organism-based. The note with it: in vitro.
The test system of data set [10] is Pseudomonas aeruginosa. Briefly: Growth inhibition of Pseudomonas aeruginosa ATCC 10145 incubated for 24 hrs under aerobic condition by microdilution method. It is filed as organism-based.
Data set [11] concerns Streptococcus mutans. Put plainly: Antiadherence activity in FITC-labelled Streptococcus mutans ATCC 25175 assessed as reduction of bacterial adhesion to hydroxylapatite at 96 ug/mL after 1 hr by fluorescence assay. It counts as functional. Set-up: scale not given: the % may be the effect or the level left.
Data set [12] relates to Escherichia coli. Briefly: Growth inhibition of Escherichia coli ATCC 15939 incubated for 24 hrs under aerobic condition by microdilution method. It is filed as organism-based.
The nature of data set [13]: Solubility of the compound in water. It counts as physicochemical. The note with it: buffer.
The test system of data set [14] is Limosilactobacillus fermentum. Put plainly: Antibiofilm activity against Lactobacillus fermentum LacB1 assessed as inhibition of biofilm formation up to 96 ug/mL after 24 hrs by crystal violet staining based assay. It counts as functional, organism-based.
Data set [15] has as its system Actinomyces naeslundii. Put plainly: Antibiofilm activity against Actinomyces naeslundii ATCC 49340 assessed as reduction in biofilm formation up to 96 ug/mL after 24 hrs by crystal violet staining-based assay. It is filed as functional, organism-based.
The subject of data set [16] is Candida albicans. Put plainly: Growth inhibition of Candida albicans ATCC 28366 up to 96 ug/ml measured after 24 hrs by microdilution method. It is filed as organism-based. Particulars: in vitro.
For data set [17], the system named is Candida albicans. Put plainly: Antibiofilm activity against Candida albicans ATCC 28366 assessed as reduction of biofilm formation up to 96 ug/mL after 24 hrs by crystal violet staining based assay. It is filed as functional, organism-based.
Data set [18] concerns Streptococcus mutans. Briefly: Inhibition of planktonic growth of Streptococcus mutans ATCC 25175 at MIC> 192 ug/mL after 24 hrs relative to control. It is filed as organism-based.
The subject of data set [19] is Staphylococcus aureus. Put plainly: Antibacterial activity against Staphylococcus aureus MTCC 902 measured after 24 hrs by broth dilution method. It is filed as functional. Particulars: MTCC 902, 24 h.
Data set [20] relates to Pseudomonas aeruginosa. Briefly: Antibacterial activity against Pseudomonas aeruginosa MTCC 2642 measured after 24 hrs by broth dilution method. It is filed as functional. Particulars: MTCC 2642, 24 h.
The subject of data set [21] is Escherichia coli. Briefly: Antibacterial activity against Escherichia coli MTCC 2622 measured after 24 hrs by broth dilution method. The note with it: MTCC 2622, 24 h. It counts as functional.
Data set [22] relates to Fibroblast. Briefly: Cytotoxicity against human fibroblasts. It counts as cell-based.
Data set [23] concerns Candida albicans. Briefly: Antiadherence activity against FITC-labelled Candida albicans ATCC 28366 assessed as reduction in bacterial adhesion to hydroxylapatite up to 96 ug/mL after 1 hr by fluorescence assay relative to control. It is filed as functional.

For the compound `O=C1N[C@H](Cc2ccc(OCc3ccccc3)cc2)C(=O)N[C@H]1Cc1ccc(OCc2ccccc2)cc1`, the inhibition entry in data set [1], in data set [7], in data set [8] and in data set [14] was “inactive” throughout. The “growth inhibition (GI)” value in data set [2] was “Non-Toxic”. The outcome in [3] and in data set [6] was inactive. For the same compound, the MIC in data set [4], in data set [9], in data set [10] and in data set [12] was over 192 µg/mL throughout. For the same compound, the Activity in data set [5] came out at 53%; in data set [11] it was 82%. The solubility entry in [13] was “Insoluble”.
Turning to `O=C1N[C@H](Cc2ccc(O)cc2)C(=O)N[C@@H]1Cc1ccccc1`, the inhibition entry in data set [1], in data set [7], in [8] and in data set [14] was “inactive” in each case. The “growth inhibition (GI)” value in [2] is listed as “Toxic”; in data set [16], “Non-Toxic”. The result in data set [15] and in [23] was inactive. The MIC in [4] was over 192 µg/mL; in data set [9], over 192 µg/mL; in [10], over 192 µg/mL; in data set [19], 16 µg/mL (≈ 51.6 µM); in [20], 32 µg/mL (≈ 103 µM); in [21] it was 64 µg/mL (≈ 206 µM). The same compound displayed an MIC in [12] of over 192 µg/mL. Besides, in data set [17], the result was Active. The “inhibition (INH)” value in data set [18] was 20%. Moreover, the Activity result in data set [22] is “Non-Toxic”.
